Earlier results in patent publication US20220323445A1, “REDUCING IMMUNOGENICITY TO PEGLOTICASE” (Horizon Therapeutics Ireland DAC, priority 2020, published 2022).

Assays:
[1] = prophylaxis of gout; cited from earlier work
[2] = patients treated with allopurinol; cited from earlier work

Row | SMILES | pharyngolaryngeal pain [1] [%] | patients who develop allergic reactions [2] | severe hypersensitivity syndrome [2]
1 | COc1cc2c(c(OC)c1OC)-c1ccc(OC)c(=O)cc1[C@@H](NC(C)=O)CC2 [colchicine] | 3 | – | –
2 | Oc1ncnc2[nH]ncc12 [allopurinol] | – | Approximately 2% | about 0.4%
